Test results taken from the NIST ThermoML archive (doi:10.1016/j.jct.2013.08.016).
Numbers after ± are expanded uncertainties.

Legend:
[1] = mn = molality of the nth substance listed, in mol/kg; conditions: 101.3 kPa, Liquid; for viscosity: Capillary tube (Ostwald / Ubbelohde) method; for mass density: Pycnometric method; for speed of sound: Single path-length method
[2] = refractive index (Na D-line) (dimensionless); mn = molality of the nth substance listed, in mol/kg; conditions: 101.3 kPa, Liquid, Standard Abbe refractometry

O=C1O[C@H]([C@@H](O)CO)C([O-])=C1O.[Na+] [sodium L-ascorbate] + O
Conditions	mass density, [1] [kg/m3]	refractive index, [2]	speed of sound, [1] [m/s]	viscosity, [1] [mPa·s]
278.15 K, m1 = 0.0495	1005.25 ± 0.38	1.3359 ± 0.0005	1432.4 ± 2.2	1.564 ± 0.033
278.15 K, m1 = 0.102	1010.89 ± 0.39	1.338 ± 0.0005	1438.9 ± 2.1	1.61 ± 0.034
278.15 K, m1 = 0.1378	1014.72 ± 0.39	1.3388 ± 0.0005	1443.6 ± 2.1	1.633 ± 0.035
278.15 K, m1 = 0.2009	1021.3 ± 0.39	1.3411 ± 0.0005	1451.6 ± 2.2	1.693 ± 0.036
278.15 K, m1 = 0.2329	1024.63 ± 0.4	1.3428 ± 0.0005	1456.6 ± 2.1	1.727 ± 0.037
278.15 K, m1 = 0.2951	1030.95 ± 0.41	1.3448 ± 0.0005	1463.8 ± 2.1	1.787 ± 0.038
278.15 K, m1 = 0.3361	1035.04 ± 0.41	1.3461 ± 0.0005	1469.1 ± 2.1	1.828 ± 0.039
278.15 K, m1 = 0.3968	1041.02 ± 0.42	1.3485 ± 0.0005	1478.2 ± 2.1	1.891 ± 0.04
278.15 K, m1 = 0.4287	1044.29 ± 0.43	1.3498 ± 0.0005	1480 ± 2.1	1.925 ± 0.041
278.15 K, m1 = 0.4929	1050.46 ± 0.44	1.3519 ± 0.0005	1489.1 ± 2.1	1.995 ± 0.043
278.15 K, m1 = 0.5436	1055.28 ± 0.45	1.3536 ± 0.0005	1494.6 ± 2.1	2.052 ± 0.044
278.15 K, m1 = 0.6275	1063.15 ± 0.46	1.3564 ± 0.0005	1503.6 ± 2.1	2.152 ± 0.046
278.15 K, m1 = 0.6583	1065.96 ± 0.46	1.3571 ± 0.0005	1509.1 ± 2.1	2.192 ± 0.047
278.15 K, m1 = 0.7407	1073.42 ± 0.47	1.3602 ± 0.0005	1518.2 ± 2.2	2.291 ± 0.049
288.15 K, m1 = 0.0403	1003.38 ± 0.36	1.3351 ± 0.0005	1470.4 ± 2.1	1.167 ± 0.025
288.15 K, m1 = 0.1263	1012.42 ± 0.37	1.3373 ± 0.0005	1479.2 ± 2.1	1.209 ± 0.026
288.15 K, m1 = 0.1604	1015.94 ± 0.37	1.3392 ± 0.0005	1483.6 ± 2.1	1.24 ± 0.027
288.15 K, m1 = 0.2478	1024.69 ± 0.38	1.3423 ± 0.0005	1494.4 ± 2.1	1.303 ± 0.028
288.15 K, m1 = 0.301	1029.91 ± 0.39	1.3439 ± 0.0005	1499.1 ± 2.1	1.339 ± 0.029
288.15 K, m1 = 0.3509	1034.82 ± 0.4	1.346 ± 0.0005	1505.9 ± 2.1	1.37 ± 0.029
288.15 K, m1 = 0.4457	1043.86 ± 0.41	1.3493 ± 0.0005	1518.2 ± 2.1	1.45 ± 0.031
288.15 K, m1 = 0.5156	1050.33 ± 0.41	1.3502 ± 0.0005	1525.5 ± 2.1	1.504 ± 0.032
288.15 K, m1 = 0.5987	1057.95 ± 0.43	1.3543 ± 0.0005	1532.7 ± 2.1	1.575 ± 0.034
288.15 K, m1 = 0.6446	1062.31 ± 0.43	1.3558 ± 0.0005	1540 ± 2.1	1.608 ± 0.035
288.15 K, m1 = 0.6909	1066.4 ± 0.44	1.3572 ± 0.0005	1545.5 ± 2.1	1.652 ± 0.036
288.15 K, m1 = 0.7466	1071.4 ± 0.45	1.3592 ± 0.0005	1552 ± 2.1	1.708 ± 0.037
298.15 K, m1 = 0.0503	1002.31 ± 0.38	1.3344 ± 0.0005	1501.9 ± 2.1	0.9169 ± 0.02
298.15 K, m1 = 0.1005	1007.49 ± 0.38	1.3362 ± 0.0005	1507.2 ± 2.1	0.9381 ± 0.02
298.15 K, m1 = 0.1492	1012.47 ± 0.39	1.3378 ± 0.0005	1512.6 ± 2.1	0.9628 ± 0.021
298.15 K, m1 = 0.1993	1017.5 ± 0.39	1.3397 ± 0.0005	1518.1 ± 2.1	0.9898 ± 0.021
298.15 K, m1 = 0.2452	1022.1 ± 0.4	1.3414 ± 0.0005	1522.5 ± 2.1	1.007 ± 0.022
298.15 K, m1 = 0.301	1027.58 ± 0.4	1.3434 ± 0.0005	1527.6 ± 2.1	1.04 ± 0.023
298.15 K, m1 = 0.3456	1031.8 ± 0.41	1.3449 ± 0.0005	1533.1 ± 2.1	1.062 ± 0.023
298.15 K, m1 = 0.4112	1038.01 ± 0.41	1.347 ± 0.0005	1539.9 ± 2.1	1.097 ± 0.024
298.15 K, m1 = 0.4397	1040.84 ± 0.42	1.3479 ± 0.0005	1542 ± 2.1	1.113 ± 0.024
298.15 K, m1 = 0.4892	1045.65 ± 0.41	1.3495 ± 0.0005	1547.2 ± 2.1	1.146 ± 0.025
298.15 K, m1 = 0.5491	1051.09 ± 0.42	1.3516 ± 0.0005	1554.4 ± 2.1	1.183 ± 0.026
298.15 K, m1 = 0.6035	1056.1 ± 0.42	1.3534 ± 0.0005	1559.1 ± 2.1	1.223 ± 0.026
298.15 K, m1 = 0.6697	1062.08 ± 0.44	1.3553 ± 0.0005	1565.3 ± 2.1	1.257 ± 0.027
298.15 K, m1 = 0.7314	1067.47 ± 0.44	1.3571 ± 0.0005	1572.6 ± 2.1	1.301 ± 0.028
